Where a name gives a salt, the structure may show the parent alone.
Assays:
Type in all cases: biochemical
Details in all cases: FDA-approved drug screen; compared to DMSO
recombinant PRL-1 = molecular target: T1, recombinant PRL-1 (Homo sapiens, UniProt Q93096); experiment: In vitro phosphatase assay (DiFMUP hydrolysis), PRL-1; further: test concentration or dose not given here
T1 construct: 6xHis (N, cleaved yes); made in house; host or cells: E. coli One Shot BL21 Star
T1 sequence (Q93096 1-173): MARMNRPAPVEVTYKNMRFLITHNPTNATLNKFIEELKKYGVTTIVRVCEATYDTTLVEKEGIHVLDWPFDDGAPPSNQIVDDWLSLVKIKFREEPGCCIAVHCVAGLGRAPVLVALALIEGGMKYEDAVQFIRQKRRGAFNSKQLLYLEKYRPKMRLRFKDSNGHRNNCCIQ

recombinant PRL-2 = molecular target: T2, recombinant PRL-2 (Homo sapiens, UniProt Q12974); experiment: In vitro phosphatase assay (DiFMUP hydrolysis), PRL-2;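 further: PRL-2 activity read as DiFMUP hydrolysis after 20 min at room temperature with drug, enzyme first pre-reduced at 4 °C for 20 min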
T2 construct: 6xHis (N, cleaved yes); made in house; host or cells: E. coli One Shot BL21 Star
T2 sequence (Q12974 1-167): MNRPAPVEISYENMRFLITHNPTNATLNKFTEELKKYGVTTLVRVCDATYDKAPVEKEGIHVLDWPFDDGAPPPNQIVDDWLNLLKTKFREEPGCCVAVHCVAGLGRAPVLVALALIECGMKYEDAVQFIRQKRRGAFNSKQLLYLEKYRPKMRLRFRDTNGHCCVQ

recombinant PRL-3 = molecular target: T3, recombinant PRL-3 (Homo sapiens, UniProt O75365); experiment: In vitro phosphatase assay (DiFMUP hydrolysis), PRL-3; further: test concentration or dose not given here
T3 construct: 6xHis (N, cleaved yes); made in house; host or cells: E. coli One Shot BL21 Star
T3 sequence (O75365 whole entry): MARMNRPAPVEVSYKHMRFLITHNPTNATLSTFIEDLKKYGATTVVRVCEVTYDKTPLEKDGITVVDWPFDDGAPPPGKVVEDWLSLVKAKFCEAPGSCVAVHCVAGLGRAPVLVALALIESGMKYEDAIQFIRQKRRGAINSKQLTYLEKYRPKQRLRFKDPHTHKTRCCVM

SMILES | % Phosphatase Activity (compared to DMSO) PRL-1 (recombinant PRL-1) | % Phosphatase Activity (compared to DMSO) PRL-2 (recombinant PRL-2) | % Phosphatase Activity (compared to DMSO) PRL-3 (recombinant PRL-3)
CNC(=O)[C@H](Cc1c[nH]c2ccccc12)NC(=O)[C@@H](CC(=O)NO)CC(C)C [Ilomastat (GM6001, Galardin)] | 94% | 80% | 91%
COc1cc(C(C)=O)ccc1OCCCN1CCC(c2noc3cc(F)ccc23)CC1 [Iloperidone] | 105% | 88% | 80%
CCOC(=O)[C@H](CCc1ccccc1)N[C@@H](C)C(=O)N1C(=O)N(C)C[C@H]1C(=O)O [Imidapril HCl] | 105% | 95% | 76%
CC(C)Cn1cnc2c(N)nc3ccccc3c21 [Imiquimod] | 98% | 106% | 67%
CCc1cc2c(cc1CC)CC(NC[C@H](O)c1ccc(O)c3[nH]c(=O)ccc13)C2 [Indacaterol Maleate] | 95% | 100% | 95%
CC1Cc2ccccc2N1NC(=O)c1ccc(Cl)c(S(N)(=O)=O)c1 (stereo not drawn) [Indapamide] | 98% | 105% | 117%
COc1ccc2c(c1)c(CC(=O)O)c(C)n2C(=O)c1ccc(Cl)cc1 [Indomethacin] | 96% | 106% | 71%
NC(=O)c1ccc(I)c([N+](=O)[O-])c1 [Iniparib (BSI-201)] | 107% | 112% | 78%
C[C@H](O)C(=O)Nc1c(I)c(C(=O)NC(CO)CO)c(I)c(C(=O)NC(CO)CO)c1I [Iopamidol] | 96% | 98% | 90%
CC(C)[N+]1(C)[C@@H]2CC[C@H]1C[C@@H](OC(=O)C(CO)c1ccccc1)C2 (stereo partly drawn) [Ipratropium Bromide] | 103% | 93% | 83%
CCCCC1=NC2(CCCC2)C(=O)N1Cc1ccc(-c2ccccc2-c2nnn[nH]2)cc1 [Irbesartan] | 95% | 87% | 84%
CCc1c2c(nc3ccc(OC(=O)N4CCC(N5CCCCC5)CC4)cc13)-c1cc3c(c(=O)n1C2)COC(=O)[C@]3(O)CC.Cl.O.O.O [Irinotecan HCl Trihydrate] | 4597% | 4207% | 4074%
CCc1c2c(nc3ccc(OC(=O)N4CCC(N5CCCCC5)CC4)cc13)-c1cc3c(c(=O)n1C2)COC(=O)[C@]3(O)CC [Irinotecan] | 4706% | 5728% | 3887%
Nc1nc(N)nc(-c2cc(Cl)ccc2Cl)n1 [Irsogladine] | 84% | 106% | 81%
Clc1ccc(C(Cn2ccnc2)OCc2c(Cl)cccc2Cl)c(Cl)c1 (stereo not drawn) [Isoconazole nitrate] | 112% | 110% | 89%
CCC(NC(C)C)C(O)c1ccc(O)c(O)c1 (stereo not drawn) [Isoetharine Mesylate] | 103% | 98% | 93%
NNC(=O)c1ccncc1 [Isoniazid] | 91% | 94% | 91%
CC(C)NCC(O)c1ccc(O)c(O)c1.Cl (stereo not drawn) [Isoprenaline HCl] | 114% | 124% | 94%
O=[N+]([O-])O[C@@H]1CO[C@H]2[C@@H]1OC[C@@H]2O [Isosorbide Mononitrate] | 91% | 85% | 81%
CC1=C(/C=C/C(C)=C/C=C/C(C)=C\C(=O)O)C(C)(C)CCC1 [Isotretinoin] | 72% | 71% | 57%
Cc1cc(NC(=O)C2=C(O)c3ccccc3S(=O)(=O)N2C)no1 [Isoxicam] | 91% | 91% | 84%
Cc1ccc(C(=O)N(CCCN)[C@@H](c2nc3cc(Cl)ccc3c(=O)n2Cc2ccccc2)C(C)C)cc1 [Ispinesib (SB-715992)] | 103% | 108% | 80%
COC(=O)C1=C(C)NC(C)=C(C(=O)OC(C)C)C1c1cccc2nonc12 (stereo not drawn) [Isradipine] | 94% | 74% | 71%
COc1ccc(C(=O)NCc2ccc(OCCN(C)C)cc2)cc1OC.Cl [Itopride hydrochloride] | 95% | 115% | 80%
COc1cc2c(cc1OC)CC(=O)N(CCCN(C)C[C@H]1Cc3cc(OC)c(OC)cc31)CC2.Cl [Ivabradine HCl] | 108% | 113% | 71%
CC(C)(C)c1cc(C(C)(C)C)c(NC(=O)c2c[nH]c3ccccc3c2=O)cc1O [Ivacaftor (VX-770)] | 95% | 87% | 77%
